Results on two molecules are retold here after BindingDB's records for patent US20260049084 (Gossamer Bio Services, 2026).

Some results are limits rather than exact numbers.

What is called IC50 is the midpoint of a concentration-inhibition curve. Lower therefore signals inhibition by little substance.

Experiment [1] deals with T1, Ectonucleotide pyrophosphatase/phosphodiesterase family member 3 (Homo sapiens, UniProt O14638).
T1 sequence (O14638 whole entry): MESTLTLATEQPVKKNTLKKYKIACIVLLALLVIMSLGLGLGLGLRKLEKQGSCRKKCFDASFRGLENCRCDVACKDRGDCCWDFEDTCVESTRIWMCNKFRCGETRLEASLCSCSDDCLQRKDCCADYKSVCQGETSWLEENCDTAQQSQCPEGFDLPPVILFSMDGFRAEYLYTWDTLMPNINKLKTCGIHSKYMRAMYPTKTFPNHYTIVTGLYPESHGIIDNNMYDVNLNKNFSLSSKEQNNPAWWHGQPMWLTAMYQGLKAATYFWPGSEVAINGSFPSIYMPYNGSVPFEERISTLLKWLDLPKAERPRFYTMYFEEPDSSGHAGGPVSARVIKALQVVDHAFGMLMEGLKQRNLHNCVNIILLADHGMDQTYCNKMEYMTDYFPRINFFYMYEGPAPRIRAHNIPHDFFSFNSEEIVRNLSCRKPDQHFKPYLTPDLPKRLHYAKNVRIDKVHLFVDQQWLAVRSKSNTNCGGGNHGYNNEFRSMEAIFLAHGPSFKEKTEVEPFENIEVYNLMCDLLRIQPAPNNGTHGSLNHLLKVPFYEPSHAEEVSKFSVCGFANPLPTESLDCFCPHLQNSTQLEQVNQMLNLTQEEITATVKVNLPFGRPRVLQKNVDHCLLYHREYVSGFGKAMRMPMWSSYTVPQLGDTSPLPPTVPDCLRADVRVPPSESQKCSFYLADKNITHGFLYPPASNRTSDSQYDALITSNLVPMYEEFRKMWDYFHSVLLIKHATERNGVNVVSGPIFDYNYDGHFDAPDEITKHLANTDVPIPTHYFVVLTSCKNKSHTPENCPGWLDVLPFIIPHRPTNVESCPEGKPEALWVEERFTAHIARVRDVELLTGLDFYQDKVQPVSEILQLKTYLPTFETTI
Briefly: ENPP3 cGAMP Biochemical Assay. On the procedure:
Compounds were added to 384 well Proxiplate (PerkinElmer, Waltham MA) at 100 nl/well from DMSO stocks using Echo (Labcyte, San Jose CA). Recombinant human ENPP3 protein (Acro Biosystems, Newwark DE) was prepared in assay buffer (50 mM Tris pH7.5, 1 mM TCEP pH7.0, 2 mM MgCl2, 2 mM CaCl2), 2 mM ZnCl2 and 0.005% Tween20) and added at 2 μl/well. […] The plate was sealed and centrifuged at 1000 rpm for 1 minute again. […] The assay plate was incubated at room temperature for 120 minutes. TR-FRET signal was detected using Envision (PerkinElmer, Waltham MA).

Experiment [2] concerns the target T2, Ectonucleotide pyrophosphatase/phosphodiesterase family member 1 (Homo sapiens, UniProt P22413).
T2 sequence (P22413 whole entry): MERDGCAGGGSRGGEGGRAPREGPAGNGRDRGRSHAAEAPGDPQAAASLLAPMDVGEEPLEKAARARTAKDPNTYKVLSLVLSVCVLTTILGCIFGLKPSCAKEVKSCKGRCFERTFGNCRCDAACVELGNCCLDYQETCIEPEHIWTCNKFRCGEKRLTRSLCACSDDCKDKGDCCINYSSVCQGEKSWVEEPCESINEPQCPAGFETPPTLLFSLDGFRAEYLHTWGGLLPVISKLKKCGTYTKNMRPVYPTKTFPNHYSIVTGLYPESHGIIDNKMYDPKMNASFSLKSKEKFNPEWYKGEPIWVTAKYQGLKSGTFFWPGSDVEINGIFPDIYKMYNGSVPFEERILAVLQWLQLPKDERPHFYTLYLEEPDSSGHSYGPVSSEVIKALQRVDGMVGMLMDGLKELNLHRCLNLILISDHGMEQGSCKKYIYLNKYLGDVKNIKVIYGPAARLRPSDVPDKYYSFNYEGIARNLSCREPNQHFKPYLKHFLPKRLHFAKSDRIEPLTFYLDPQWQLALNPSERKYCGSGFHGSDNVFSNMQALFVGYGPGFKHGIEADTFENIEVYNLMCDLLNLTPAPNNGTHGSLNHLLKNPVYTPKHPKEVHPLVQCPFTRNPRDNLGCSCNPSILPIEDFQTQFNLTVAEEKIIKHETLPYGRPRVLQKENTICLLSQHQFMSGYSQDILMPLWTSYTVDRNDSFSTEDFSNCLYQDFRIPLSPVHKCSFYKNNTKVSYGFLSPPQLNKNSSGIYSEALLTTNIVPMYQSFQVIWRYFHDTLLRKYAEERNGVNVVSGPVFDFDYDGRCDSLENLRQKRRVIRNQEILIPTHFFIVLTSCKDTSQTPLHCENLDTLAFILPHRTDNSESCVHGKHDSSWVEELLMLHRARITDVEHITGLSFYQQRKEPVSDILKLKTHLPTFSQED
Briefly: ENPP1 cGAMP Biochemical Assay. As to the method: Compounds were added to 384 well Proxiplate (PerkinElmer, Waltham MA) at 100 nl/well from DMSO stocks using Echo (Labcyte, San Jose CA). Recombinant human ENPP1 protein (R&D Systems, Minneapolis MN) was prepared in assay buffer (50 mM Tris pH7.5, 1 mM TCEP pH7.0, 2 mM MgCl2 and 0.005% Tween20) and added at 10 μl/well. The plate was sealed, centrifuged at 1000 rpm for 1 minute and incubated at room temperature for 30 minutes before 5 μl substrate 2′3′-cGAMP (R&D Systems, Minneapolis MN) in assay buffer was added to each well to a final concentration of 0.5 nM ENPP1 and 1000 nM 2′3′-cGAMP. The plate was sealed and centrifuged at 1000 rpm for 1 minute again. After incubation at 25° C. for 60 minutes, Terbium labelled AMP/GMP antibody and AMP/GMP HiLyte647 Tracer (BellBrook Labs, Fitchburg WI) in detection buffer (50 mM Tris pH7.5, 20 mM EDTA and 0.1% Prionex) were added to the reaction mixture to a final concentration of 2 nM (5 μl/well). The assay plate was incubated at room temperature for 120 minutes. TR-FRET signal was detected using Envision (PerkinElmer, Waltham MA).

The target in a further experiment is Carbonic anhydrase 2 (Homo sapiens, UniProt P00918). Briefly: Carbonic Anhydrase 2 Enzymatic Assay. On the procedure: Test compound and/or vehicle was preincubated with carbonic anhydrase II enzyme (15 μg/ml) isolated from human erythrocyte in reaction buffer (50 mM MOPS solution pH 7.5) for 15 minutes at 25° C. The reaction was initiated by addition of 500 μM 4-nitrophenyl acetate and incubated for 30 minutes. The plate was read on a spectrophotometer (Absorbance: 400 nm).

The target in another experiment is Carbonic anhydrase 1 (Homo sapiens, UniProt P00915). The experiment is described as follows: Carbonic Anhydrase 1 Enzymatic Assay. As to the method:
Test compound and/or vehicle was preincubated with carbonic anhydrase I enzyme (15 μg/ml) isolated from human erythrocyte in reaction buffer (50 mM MOPS solution pH 7.5) for 15 minutes at 25° C. The reaction was initiated by addition of 500 μM 4-nitrophenyl acetate and incubated for 30 minutes. The plate was read on a spectrophotometer (Absorbance: 400 nm)

Carbonic anhydrase 1, sequence (P00915 whole entry): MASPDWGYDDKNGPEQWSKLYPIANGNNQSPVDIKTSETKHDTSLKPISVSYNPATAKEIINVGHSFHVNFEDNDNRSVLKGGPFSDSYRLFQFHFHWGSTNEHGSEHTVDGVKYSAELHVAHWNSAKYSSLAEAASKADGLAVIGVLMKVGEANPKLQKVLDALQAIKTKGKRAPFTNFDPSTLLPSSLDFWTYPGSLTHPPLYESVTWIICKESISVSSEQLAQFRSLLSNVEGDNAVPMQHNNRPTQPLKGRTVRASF

With `CCn1nc(Cl)c2c(NCC3CCN(S(=N)(=O)CCNC(C)=O)CC3)ccnc21` (centres undefined) [US20260049084, Compound 14K], the IC50 in experiment [1] was greater than 1000 nM; in experiment [2], less than 10 nM.
On to `CN=[S@](N)(=O)N1CCC(CNc2ccnc3c2c(Cl)nn3CC#N)CC1` [US20260049084, Compound 15G], for which the IC50 against Carbonic anhydrase 2 and on Carbonic anhydrase 1 was greater than 1000 nM in each case.
